Where only a bound is given, the exact number is not on record here.

One assay addresses Histone deacetylase 1 (Homo sapiens, UniProt Q13547). Put plainly: Inhibition of human recombinant FLAG-tagged HDAC1 expressed in HEK293F cells incubated for 30 mins by Fluor De Lys assay. The format is cell-based.
A further assay deals with Histone deacetylase 2 (Homo sapiens, UniProt Q92769). Put plainly: Inhibition of human recombinant FLAG-tagged HDAC2 expressed in Sf9 cells incubated for 30 mins by Fluor De Lys assay.
Sequence of Histone deacetylase 2 (Q92769 whole entry): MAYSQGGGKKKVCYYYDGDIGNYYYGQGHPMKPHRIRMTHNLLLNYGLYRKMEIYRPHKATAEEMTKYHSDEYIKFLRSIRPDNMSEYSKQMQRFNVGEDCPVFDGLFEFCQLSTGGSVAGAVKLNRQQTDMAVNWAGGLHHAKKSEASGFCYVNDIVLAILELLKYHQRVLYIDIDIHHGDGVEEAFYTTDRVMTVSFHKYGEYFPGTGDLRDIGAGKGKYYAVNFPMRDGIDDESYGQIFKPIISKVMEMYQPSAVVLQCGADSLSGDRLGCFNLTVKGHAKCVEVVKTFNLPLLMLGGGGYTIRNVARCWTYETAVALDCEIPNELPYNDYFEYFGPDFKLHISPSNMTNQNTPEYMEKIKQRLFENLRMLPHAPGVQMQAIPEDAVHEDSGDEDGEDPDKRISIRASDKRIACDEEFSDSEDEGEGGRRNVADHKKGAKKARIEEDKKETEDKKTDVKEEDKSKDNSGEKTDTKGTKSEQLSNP
Another assay addresses Histone deacetylase 3 (Homo sapiens, UniProt O15379). Nature of the assay: Inhibition of human recombinant FLAG-tagged HDAC3 expressed in HEK293F cells incubated for 30 mins by Fluor De Lys assay. The format is cell-based.

Sequence of Histone deacetylase 1 (Q13547 whole entry): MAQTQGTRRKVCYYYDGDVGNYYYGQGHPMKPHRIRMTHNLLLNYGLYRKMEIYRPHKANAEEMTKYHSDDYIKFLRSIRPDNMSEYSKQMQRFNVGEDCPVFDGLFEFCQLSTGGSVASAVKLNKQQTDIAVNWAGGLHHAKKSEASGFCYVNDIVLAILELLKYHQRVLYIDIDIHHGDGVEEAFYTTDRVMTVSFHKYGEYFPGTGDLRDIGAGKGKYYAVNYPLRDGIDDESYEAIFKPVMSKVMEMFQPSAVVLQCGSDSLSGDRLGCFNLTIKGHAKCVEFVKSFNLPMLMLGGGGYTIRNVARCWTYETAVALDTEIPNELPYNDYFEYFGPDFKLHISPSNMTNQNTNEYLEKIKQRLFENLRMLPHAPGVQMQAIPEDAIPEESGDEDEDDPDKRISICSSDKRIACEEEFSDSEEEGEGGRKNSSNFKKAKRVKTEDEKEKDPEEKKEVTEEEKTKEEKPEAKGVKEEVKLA
Sequence of Histone deacetylase 3 (O15379 whole entry): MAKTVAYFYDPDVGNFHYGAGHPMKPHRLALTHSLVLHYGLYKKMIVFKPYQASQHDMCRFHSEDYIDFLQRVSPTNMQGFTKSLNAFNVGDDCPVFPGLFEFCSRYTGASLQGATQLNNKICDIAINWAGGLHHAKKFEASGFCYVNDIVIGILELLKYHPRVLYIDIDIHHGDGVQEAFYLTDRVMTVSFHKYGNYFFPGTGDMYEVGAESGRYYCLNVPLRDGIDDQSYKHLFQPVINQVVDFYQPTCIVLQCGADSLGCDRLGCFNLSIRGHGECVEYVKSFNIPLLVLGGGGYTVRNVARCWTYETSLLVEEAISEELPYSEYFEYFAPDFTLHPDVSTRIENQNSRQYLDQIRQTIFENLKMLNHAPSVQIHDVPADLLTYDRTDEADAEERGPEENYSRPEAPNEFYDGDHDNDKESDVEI

As usually defined, the IC50 is the concentration that inhibits the measured activity by half. Regarding `CCC(=O)CCCCC[C@H](NC(=O)[C@H]1CC12CCN(C)CC2)c1ncc(-c2cc3ccc(N4CCCC4)nc3cc2OC)[nH]1`, the results for the IC50 at Histone deacetylase 1 and at Histone deacetylase 2 were 0.32 nM and 2 nM, respectively.

In the case of `CCC(=O)CCCCC[C@H](NC(=O)[C@H]1CC12CCN(CC)CC2)c1ncc(-c2cc3cccnc3cc2OC)o1`, the IC50 at Histone deacetylase 3 and at Histone deacetylase 1 was less than 1.5 nM throughout.

The values above are taken from ChEMBL document CHEMBL4825740, “Novel Histone Deacetylase Inhibitors for Treating HIV Infection” (ACS Med Chem Lett, 2021).
